Calls of active or inactive are those of the source.
Assays:
[1] = Luminescence Cell-Based Dose Retest to Confirm Inhibitors of Cancer Stem Cells. [Related pubchem assays (depositor defined):AID2717, AID2721]; format: functional; conditions: Homo sapiens
Melanocortin receptor 4 = Melanocortin receptor 4 (Homo sapiens, UniProt P32245); format: functional, cell-based;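 further: Cell-based assay with luminescence read-out, confirmatory dose-response testing for agonist activity of biased ligands at MC4R; human U2OS cells with tagged receptor and beta-arrestin; potency of agonists that increase receptor coupling to beta-arrestin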
Melanocortin receptor 4, sequence (P32245 whole entry): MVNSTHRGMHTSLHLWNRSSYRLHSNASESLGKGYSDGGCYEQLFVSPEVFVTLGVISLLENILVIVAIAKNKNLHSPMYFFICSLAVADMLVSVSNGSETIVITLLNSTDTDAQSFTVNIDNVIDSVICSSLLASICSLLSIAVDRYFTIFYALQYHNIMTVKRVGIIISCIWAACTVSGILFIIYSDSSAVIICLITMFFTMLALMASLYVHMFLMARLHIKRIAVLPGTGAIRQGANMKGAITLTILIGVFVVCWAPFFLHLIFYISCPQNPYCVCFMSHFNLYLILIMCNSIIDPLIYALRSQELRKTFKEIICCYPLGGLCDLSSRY

Cytochrome P450 3A4 = Cytochrome P450 3A4 (Homo sapiens, UniProt P08684);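 further: CYP3A4 tested as one member of a cytochrome P450 panel screen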
Cytochrome P450 3A4, sequence (P08684 whole entry): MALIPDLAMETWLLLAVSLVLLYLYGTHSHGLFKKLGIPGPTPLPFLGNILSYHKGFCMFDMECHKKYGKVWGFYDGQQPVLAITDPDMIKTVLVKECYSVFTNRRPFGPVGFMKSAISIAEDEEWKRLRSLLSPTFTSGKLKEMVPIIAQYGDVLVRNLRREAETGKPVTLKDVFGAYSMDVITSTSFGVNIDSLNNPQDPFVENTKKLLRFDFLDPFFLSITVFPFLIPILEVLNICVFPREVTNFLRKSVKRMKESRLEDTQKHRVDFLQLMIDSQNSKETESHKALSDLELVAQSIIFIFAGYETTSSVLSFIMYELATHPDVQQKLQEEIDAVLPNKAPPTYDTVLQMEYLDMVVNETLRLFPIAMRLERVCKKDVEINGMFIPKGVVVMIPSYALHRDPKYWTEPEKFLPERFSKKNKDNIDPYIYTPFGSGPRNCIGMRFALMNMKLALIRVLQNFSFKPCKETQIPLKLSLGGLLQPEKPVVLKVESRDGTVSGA

Cytochrome P450 2D6 = Cytochrome P450 2D6 (Homo sapiens, UniProt P10635);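 further: CYP2D6 member of a cytochrome P450 panel assay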
Cytochrome P450 2D6, sequence (P10635 whole entry, the tested form may be a part): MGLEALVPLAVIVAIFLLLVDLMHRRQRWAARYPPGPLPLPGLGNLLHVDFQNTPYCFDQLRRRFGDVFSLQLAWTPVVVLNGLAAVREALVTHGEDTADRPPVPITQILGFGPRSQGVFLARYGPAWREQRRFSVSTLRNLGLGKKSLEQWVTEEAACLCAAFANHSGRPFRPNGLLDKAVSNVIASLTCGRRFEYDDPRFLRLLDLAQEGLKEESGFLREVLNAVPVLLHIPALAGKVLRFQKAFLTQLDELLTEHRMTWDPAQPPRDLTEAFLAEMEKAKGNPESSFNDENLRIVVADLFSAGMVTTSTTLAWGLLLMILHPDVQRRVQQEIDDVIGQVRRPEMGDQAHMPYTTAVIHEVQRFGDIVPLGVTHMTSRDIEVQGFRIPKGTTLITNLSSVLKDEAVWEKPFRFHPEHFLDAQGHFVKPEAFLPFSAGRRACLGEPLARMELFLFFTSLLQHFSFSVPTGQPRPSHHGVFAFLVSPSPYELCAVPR

[2] = target: T1, Carboxy-terminal domain RNA polymerase II polypeptide A small phosphatase 1 (Homo sapiens, UniProt Q9GZU7); assay: inhibitors of CTDSP1, concentration-response testing, biochemical assay, absorbance-based, actives from ultra-high-throughput screening (AID 540297); format: functional
T1 sequence (Q9GZU7 whole entry): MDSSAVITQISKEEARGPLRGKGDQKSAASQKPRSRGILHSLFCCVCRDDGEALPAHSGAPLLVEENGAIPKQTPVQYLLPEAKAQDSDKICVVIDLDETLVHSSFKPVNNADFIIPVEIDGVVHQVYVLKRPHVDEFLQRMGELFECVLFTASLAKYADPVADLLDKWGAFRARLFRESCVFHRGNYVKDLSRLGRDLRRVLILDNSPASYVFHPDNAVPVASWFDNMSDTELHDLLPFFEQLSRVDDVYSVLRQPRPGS

HEK293 = assay: inhibitors of LMP1-driven NF-kB reporter, dose response, cell-based, HEK293, luciferase, cherry-pick (AID 588343); format: functional; conditions: Homo sapiens
[3] = target: Dual specificity tyrosine-phosphorylation-regulated kinase 1A (Rattus norvegicus, UniProt Q63470); format: biochemical, Homo sapiens
Escherichia coli = assay: microbe, parasite or virus in culture
Protein RecA = target: T2, Protein RecA (Mycobacterium tuberculosis, UniProt P9WHJ3); assay: Fluorescence Cell-Free Homogeneous Dose Retest to Identify Inhibitors of RecA-Intein Splicing Activity. [Related pubchem assays (depositor defined):AID2097, AID2223, AID489010, AID492950]; format: functional
T2 sequence (P9WHJ3 whole entry): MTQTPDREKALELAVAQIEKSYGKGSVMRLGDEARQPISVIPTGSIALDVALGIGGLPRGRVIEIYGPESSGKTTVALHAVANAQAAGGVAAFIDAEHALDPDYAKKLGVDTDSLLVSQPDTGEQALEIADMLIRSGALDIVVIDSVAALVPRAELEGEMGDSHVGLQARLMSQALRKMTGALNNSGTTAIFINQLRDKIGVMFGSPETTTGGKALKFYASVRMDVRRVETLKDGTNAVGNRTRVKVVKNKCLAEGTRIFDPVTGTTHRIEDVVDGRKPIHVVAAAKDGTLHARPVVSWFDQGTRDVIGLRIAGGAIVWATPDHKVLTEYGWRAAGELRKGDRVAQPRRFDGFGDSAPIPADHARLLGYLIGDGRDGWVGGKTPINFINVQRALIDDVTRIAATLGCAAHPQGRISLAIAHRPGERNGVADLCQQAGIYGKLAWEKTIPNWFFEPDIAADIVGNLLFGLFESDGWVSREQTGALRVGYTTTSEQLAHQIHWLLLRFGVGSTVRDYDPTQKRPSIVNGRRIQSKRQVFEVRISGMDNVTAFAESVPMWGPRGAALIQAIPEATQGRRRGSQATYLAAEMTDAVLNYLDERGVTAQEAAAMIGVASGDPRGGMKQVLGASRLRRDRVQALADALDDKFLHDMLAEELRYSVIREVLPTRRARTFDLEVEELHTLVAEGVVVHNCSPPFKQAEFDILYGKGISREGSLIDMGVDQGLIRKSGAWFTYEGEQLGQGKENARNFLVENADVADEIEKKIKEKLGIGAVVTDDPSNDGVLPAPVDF

[4] = target: T3, Replicative DNA helicase DnaB (Mycobacterium tuberculosis, UniProt P9WMR3); assay: DnaB intein splicing inhibitors, dose response, biochemical, cell-free fluorescence (AID 449749); format: functional
T3 sequence (P9WMR3 whole entry): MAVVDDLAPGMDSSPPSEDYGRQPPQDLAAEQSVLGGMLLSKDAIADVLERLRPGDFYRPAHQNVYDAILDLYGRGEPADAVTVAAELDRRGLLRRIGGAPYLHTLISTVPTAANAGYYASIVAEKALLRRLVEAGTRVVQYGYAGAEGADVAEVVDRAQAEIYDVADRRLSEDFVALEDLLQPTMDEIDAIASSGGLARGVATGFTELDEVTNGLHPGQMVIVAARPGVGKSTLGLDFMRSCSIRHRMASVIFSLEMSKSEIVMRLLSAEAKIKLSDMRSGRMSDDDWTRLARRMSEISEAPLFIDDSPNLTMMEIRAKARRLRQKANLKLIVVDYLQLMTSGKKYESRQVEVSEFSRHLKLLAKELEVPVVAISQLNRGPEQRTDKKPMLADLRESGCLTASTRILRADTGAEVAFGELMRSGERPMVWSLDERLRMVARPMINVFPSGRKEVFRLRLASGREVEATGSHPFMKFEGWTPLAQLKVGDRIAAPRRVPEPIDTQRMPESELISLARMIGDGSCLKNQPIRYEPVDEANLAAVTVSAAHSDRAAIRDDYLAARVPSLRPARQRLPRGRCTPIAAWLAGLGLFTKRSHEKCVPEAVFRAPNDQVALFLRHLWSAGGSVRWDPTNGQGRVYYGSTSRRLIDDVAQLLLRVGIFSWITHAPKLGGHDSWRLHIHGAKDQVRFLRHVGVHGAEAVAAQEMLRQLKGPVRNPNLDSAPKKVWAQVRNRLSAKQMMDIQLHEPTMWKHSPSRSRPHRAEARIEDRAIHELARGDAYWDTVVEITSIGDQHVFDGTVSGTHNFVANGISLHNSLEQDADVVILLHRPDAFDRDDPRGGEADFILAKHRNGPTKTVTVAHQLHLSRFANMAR

[5] = target: T4, Endoribonuclease toxin MazF (Escherichia coli K-12, UniProt P0AE70); assay: MazF toxin RNase activators, dose response, biochemical, fluorescence, single-stranded RNA substrate, uHTS hits (AID 588481); format: functional
T4 sequence (P0AE70 whole entry): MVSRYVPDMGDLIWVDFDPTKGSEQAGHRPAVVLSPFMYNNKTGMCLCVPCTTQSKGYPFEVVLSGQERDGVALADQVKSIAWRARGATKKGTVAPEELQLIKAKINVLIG

[6] = target: T4, Endoribonuclease toxin MazF; assay: fluorescent RNA oligo signal without MazF, dose response, counter-screen for MazEF activator project, biochemical, fluorescence, single-stranded RNase substrate (AID 588502); format: functional
[7] = target: T5, Heat shock factor protein 1 (Mus musculus, UniProt P38532); assay: inhibition of MG132-induced HSE-luciferase signal, confirmation, cell-based, NIH3T3, luminescence, dose retest (AID 2382); format: functional;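 further: NIH3T3 fibroblasts with HSF1-driven luciferase reporter stressed by proteasome inhibitor MG132; luminescence from HSF1-driven luciferase expression after 8 hours of MG132 stress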
T5 sequence (P38532 whole entry): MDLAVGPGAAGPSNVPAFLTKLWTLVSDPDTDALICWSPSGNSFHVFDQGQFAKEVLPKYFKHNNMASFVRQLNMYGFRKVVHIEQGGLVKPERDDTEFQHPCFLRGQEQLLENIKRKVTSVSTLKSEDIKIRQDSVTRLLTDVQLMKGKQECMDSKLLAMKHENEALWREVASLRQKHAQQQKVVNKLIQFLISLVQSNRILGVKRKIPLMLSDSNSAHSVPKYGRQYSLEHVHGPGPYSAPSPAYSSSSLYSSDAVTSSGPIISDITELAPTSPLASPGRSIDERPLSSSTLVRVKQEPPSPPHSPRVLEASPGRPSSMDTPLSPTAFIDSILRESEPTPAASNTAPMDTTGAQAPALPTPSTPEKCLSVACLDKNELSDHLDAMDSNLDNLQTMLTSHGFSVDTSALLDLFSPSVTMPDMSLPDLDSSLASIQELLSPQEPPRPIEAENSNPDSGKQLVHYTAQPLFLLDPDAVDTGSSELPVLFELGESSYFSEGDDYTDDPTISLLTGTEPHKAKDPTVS

[8] = target: T6, Short transient receptor potential channel 4 (Mus musculus, UniProt Q9QUQ5); assay: mouse TRPC4 channel inhibitors, dose response, cell-based, HEK293 TRPC4/mu-opioid, Fluo-4 calcium (AID 434942); format: functional;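 further: potency of inhibitors blocking the TRPC4 calcium response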
T6 sequence (Q9QUQ5 whole entry): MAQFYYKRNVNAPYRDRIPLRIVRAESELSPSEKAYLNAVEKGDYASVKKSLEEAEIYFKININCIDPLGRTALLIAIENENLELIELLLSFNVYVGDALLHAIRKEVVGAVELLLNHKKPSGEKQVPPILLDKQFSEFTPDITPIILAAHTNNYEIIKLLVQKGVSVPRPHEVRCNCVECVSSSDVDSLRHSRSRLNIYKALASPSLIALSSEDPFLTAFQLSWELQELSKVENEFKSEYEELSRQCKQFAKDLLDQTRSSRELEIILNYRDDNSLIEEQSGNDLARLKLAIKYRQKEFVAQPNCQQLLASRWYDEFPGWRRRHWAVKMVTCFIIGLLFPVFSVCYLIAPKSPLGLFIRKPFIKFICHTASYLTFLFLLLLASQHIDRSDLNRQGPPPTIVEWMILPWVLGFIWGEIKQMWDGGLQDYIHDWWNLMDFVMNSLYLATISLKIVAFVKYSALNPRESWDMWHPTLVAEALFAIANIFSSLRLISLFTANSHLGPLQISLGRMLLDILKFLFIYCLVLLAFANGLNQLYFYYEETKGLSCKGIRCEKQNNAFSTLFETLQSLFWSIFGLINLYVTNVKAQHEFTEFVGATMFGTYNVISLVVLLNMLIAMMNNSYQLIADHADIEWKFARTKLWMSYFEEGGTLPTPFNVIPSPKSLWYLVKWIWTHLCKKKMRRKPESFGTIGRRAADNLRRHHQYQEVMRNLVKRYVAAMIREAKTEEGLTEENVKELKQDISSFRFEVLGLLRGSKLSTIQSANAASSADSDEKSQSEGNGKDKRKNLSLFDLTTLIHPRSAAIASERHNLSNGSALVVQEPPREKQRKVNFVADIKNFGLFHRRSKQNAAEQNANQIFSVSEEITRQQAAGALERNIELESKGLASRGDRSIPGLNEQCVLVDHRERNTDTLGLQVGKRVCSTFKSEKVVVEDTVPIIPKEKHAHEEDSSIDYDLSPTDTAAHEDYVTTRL

P388 = assay: cells; format: functional; conditions: Mus musculus
P388/ADR = assay: cells; format: functional; conditions: Mus musculus
SN12K1 = assay: cells; format: functional; conditions: Homo sapiens
[9] = target: DNA dC->dU-editing enzyme APOBEC-3G (Homo sapiens, UniProt Q9HC16); assay: Dose Response confirmation of small molecule APOBEC3G DNA Deaminase Inhibitors via a fluorescence-based single-stranded DNA deaminase assay. [Related pubchem assays (depositor defined):AID493012, AID493028]; format: functional
DNA dC->dU-editing enzyme APOBEC-3G, sequence (Q9HC16 whole entry): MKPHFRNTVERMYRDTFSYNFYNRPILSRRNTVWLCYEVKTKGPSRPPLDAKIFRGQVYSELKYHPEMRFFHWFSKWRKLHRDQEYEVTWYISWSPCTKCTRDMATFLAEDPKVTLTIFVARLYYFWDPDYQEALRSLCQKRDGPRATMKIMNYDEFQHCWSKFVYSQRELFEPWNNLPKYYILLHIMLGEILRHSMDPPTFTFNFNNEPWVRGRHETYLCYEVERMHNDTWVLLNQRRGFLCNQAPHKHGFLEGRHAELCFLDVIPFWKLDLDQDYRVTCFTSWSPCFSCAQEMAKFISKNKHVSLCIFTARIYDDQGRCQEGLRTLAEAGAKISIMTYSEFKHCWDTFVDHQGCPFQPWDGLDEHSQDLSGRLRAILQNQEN

[10] = target: DNA dC->dU-editing enzyme APOBEC-3A (Homo sapiens, UniProt P31941); assay: APOBEC3A DNA deaminase inhibitors, dose response, biochemical (AID 504722); format: functional
DNA dC->dU-editing enzyme APOBEC-3A, sequence (P31941 whole entry): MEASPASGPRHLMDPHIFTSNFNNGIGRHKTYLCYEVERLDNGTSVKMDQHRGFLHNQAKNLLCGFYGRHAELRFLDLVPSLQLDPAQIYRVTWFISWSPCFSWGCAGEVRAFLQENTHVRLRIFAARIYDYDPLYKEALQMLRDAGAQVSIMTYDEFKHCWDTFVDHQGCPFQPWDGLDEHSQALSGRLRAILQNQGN

## COc1ccc(-c2sc3ccc(N4CCOCC4)cc3c2C#CC2(O)CCCCC2)cc1
[1]
  AC50: 0.749 µM (active)
Melanocortin receptor 4
  EC50: > 89.2 µM (inactive)

## O=C(C=C1SCCS1)/C=C/c1ccco1
Cytochrome P450 3A4
  AC50: 15.8 µM (inconclusive)
Cytochrome P450 2D6
  AC50: 17.8 µM (inconclusive)
[2]
  IC50: 7.85 µM (active)
HEK293
  AC50: 10.8 µM (active)

## O=C(NCc1ccco1)c1sc2ccccc2c1Cl
[3]
  AC50: 7.39 µM (active)

## CC(=O)c1ccc(-c2cccc(-c3nc4ccccn4c3NC3CCCCC3)c2)cc1
Escherichia coli
  AC50: 299 µM (active)
Protein RecA
  EC50: 0.178 µM (active)
[4]
  AC50: 0.377 µM (active)

## O=c1oc(/C=C/c2ccco2)nc2sc3c(c12)CCC3
[5]
  EC50: > 99 µM (inactive)
[6]
  EC50: > 99 µM (inactive)

## CCOC(=O)CSc1cc(CS(C)(=O)=O)nc(-c2ccccn2)n1
Escherichia coli
  AC50: 56.8 µM (active)
[7]
  EC50: > 195 µM (not active)

## COc1ccc(O)c(-c2cc(-c3cccs3)[nH]n2)c1
[3]
  AC50: 10.6 µM (active)

## CC1CC(=O)N(c2ccc(NCc3ccc(Cl)cc3)c([N+](=O)[O-])c2)C1=O (centres undefined)
[5]
  EC50: 96.1 µM (inactive)
[6]
  EC50: > 99 µM (inactive)

## Cc1cc(Nc2ccccc2)nc2cc(O)ccc12
[8]
  EC50: 3.76 µM (active)
[3]
  AC50: 4.44 µM (active)

## CCN1CCN(Cc2ccc(NC(=O)c3ccc(C)c(NC(=O)c4nccn4C)c3)cc2C(F)(F)F)CC1
HEK293
  AC50: 1.56 µM (active)

## COC(=O)CSc1ncnc2c1sc1nc3c(cc12)COC(C)(C)C3
HEK293
  AC50: 4.32 µM (active)

## O=C1C(Cl)=C(NCCc2ccccc2)C(=O)N1CCc1ccccc1
[5]
  EC50: > 99 µM (inactive)
[6]
  EC50: > 99 µM (inactive)

## CC(=O)Nc1cc(-c2cccc(C(=O)N(C)C)c2)cn2c(-c3ccc(F)c(Cl)c3)cnc12
Melanocortin receptor 4
  EC50: > 89.2 µM (inactive)

## O=C1C(O)=C(CC=C(Cl)Cl)C(=O)c2ccccc21
P388
  GI50: 1.8 µM (inactive)
P388/ADR
  GI50: 1.6 µM (inactive)
SN12K1
  GI50: 1.11 µM (active)
[3]
  AC50: 4.87 µM (active)

## COc1cccc(-c2cnc3c(NC(C)=O)cc(-c4ccc(C(=O)N5CCOCC5)cc4)cn23)c1
Melanocortin receptor 4
  EC50: > 89.2 µM (inactive)

## Cc1nn(-c2ccccc2)c(O)c1/C=N/c1ccc2[nH]c(O)nc2c1
[5]
  EC50: > 99 µM (inactive)
[6]
  EC50: > 99 µM (inactive)

## Sc1nnc(C2CCCCC2)n1/N=C/c1ccncc1
[9]
  IC50: 7.27 µM (active)
[10]
  IC50: > 100 µM (inactive)
HEK293
  AC50: 11.5 µM (active)

From ChEMBL document CHEMBL1201862, “PubChem BioAssay data set” (2004)
